Data on two compounds can be found in patent US9133187B2, “Serine/threonine kinase inhibitors” (ARRAY BIOPHARMA INC., priority 2011, dated 2015).

The test system of experiment [1] is PMA-stimulated P90RSK(Ser380) phosphorylation in HepG2 cells. Briefly: Cellular P90RSK(Ser380) Phosphorylation Assay. The experiment is classed as cell-based. The settings on record: Homo sapiens, 1.5 h compound incubation, PMA stimulation, pP90RSK(Ser380) normalized to GAPDH, read-out: Cell Assay IC50. In short, it runs like this: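 HepG2 cells were pretreated with compound (0.5% DMSO final) for 1.5 h, then stimulated with PMA 100 ng/mL for 30 min at 37° C. Fixed, permeabilized cells were immunostained for pP90RSK(Ser380) and GAPDH. The two-channel infrared fluorescence was read, and the phospho signal was normalized to GAPDH.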

Experiment [2] relates to HCT116 cells. Briefly: Cell Proliferation/Viability Assay (Cell Titer-Blue, 72 h). The format is cell-based. The settings on record: Homo sapiens, HCT-116, 3-day (72-hour) incubation. Here is the method: The cytotoxic or cytostatic activity of formula I exemplary compounds was measured by: establishing a proliferating mammalian tumor cell line in a cell culture medium, adding a formula I compound, culturing the cells for a period from about 6 h to about 5 d; and measuring cell viability (Example 78). Cell-based in vitro assays were used to measure viability, i.e. proliferation (IC50), cytotoxicity (EC50).
Viable cells after a 3-day (72-hour) incubation with ERK compounds were quantified using the Cell Titer-Blue Cell Viability Assay from Promega.
Materials and Methods: HCT116 cells were plated in 96 well micro-plates at a density of 1,000 cells/well. The cells were allowed to attach to micro-plate overnight at 37° C./5% CO2. After overnight attachment, diluted compounds were then added to the cells at a final concentration of 0.5% DMSO. After 3 days (72 hours) at 37° C./5% CO2, the number of viable cells was determined using the Cell Titer-Blue Cell Viability Assay from Promega. Briefly, Cell Titer-Blue reagent were added to the cells and incubated for 1 hour. Fluorescense (560 nmexcitation/590 nmemission) was then read using a fluorescence micro-plate reader. Background from high concentration ERK-inhibited wells was subtracted. Representative date is in TABLE III (infra).
In general terms: Alamar Blue is a resazurin reagent that responds to reducing activity.

Experiment [3] deals with human ERK-2 (Mitogen Activated Kinase 1) (Homo sapiens (Human), UniProt P28482). Briefly: ERK-2 Enzymatic Assay. The experiment is classed as biochemical. The settings on record: 5 nM ERK-2, 25 μM ATP, Omnia peptide S/T17; read-out: ERK Inhibition IC50. In short, it runs like this:
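Recombinant N-terminal 6-His human ERK-2 (aa 8-360, E. coli) with fluorescent Omnia peptide S/T17 substrate, ambient temperature, read kinetically every 50 s for ~30 min (Ex 340/Em 495 nm). Linear rates converted to percent of control; IC50 from four-parameter fit.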

The IC50 is the concentration that inhibits the measured activity by half.

Chain of human ERK-2 (Mitogen Activated Kinase 1) (P28482 8-360): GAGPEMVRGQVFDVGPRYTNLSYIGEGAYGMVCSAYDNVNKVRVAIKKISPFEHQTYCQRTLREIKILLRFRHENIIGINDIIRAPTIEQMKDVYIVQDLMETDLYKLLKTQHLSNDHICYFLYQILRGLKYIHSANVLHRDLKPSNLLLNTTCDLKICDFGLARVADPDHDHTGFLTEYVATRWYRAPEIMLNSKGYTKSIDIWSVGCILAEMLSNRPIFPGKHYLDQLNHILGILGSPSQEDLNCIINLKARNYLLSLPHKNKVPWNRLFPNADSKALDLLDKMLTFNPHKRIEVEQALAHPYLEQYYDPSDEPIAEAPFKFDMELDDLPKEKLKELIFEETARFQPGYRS

For the compound `C[C@@H](NC(=O)N1CCc2cnc(N[C@H]3CC[C@H](O)C3)nc2C1)c1ccc(C(F)(F)F)c(F)c1` [Compound I-52, N—((R)-1-(3-fluoro-4-(trifluoromethyl)phenyl)ethyl)-2-((1S,3S)-3-hydroxycyclopentylamino)-5,6-dihydropyrido[3,4-d]pyrimidine-7(8H)-carboxamide], the figures for the IC50 in experiment [1], in experiment [2] and in experiment [3] were 57 nM, 1400 nM and 2.7 nM, respectively.

For the compound `CC(C)Nc1ncc2c(n1)CN(C(=O)N[C@H](CO)c1ccc(Cl)c(Cl)c1)CC2` [Compound I-16, (S)—N-(1-(3,4-dichlorophenyl)-2-hydroxyethyl)-2-(isopropylamino)-5,6-dihydropyrido[3,4-d]pyrimidine-7(8H)-carboxamide], the IC50 was 52.4 nM in experiment [1], 2100 nM in experiment [2] and 1.1 nM in experiment [3].
